Data as given in ChEMBL document CHEMBL1130630, “Structure-based design of peptidomimetic ligands of the Grb2-SH2 domain” (Bioorg Med Chem Lett, 1998).
Square brackets hold non-standard residues; d marks the D form. Peptide text beside a SMILES is read from it. pY = N[C@@H](Cc1ccc(OP(=O)(O)O)cc1)C(=O)O

biological target: Growth factor receptor-bound protein 2 (Homo sapiens, UniProt P62993); experiment: Inhibition of Growth factor receptor bound protein 2 SH2 domain binding to phospho-EGFR by ELISA

| IC50 | Compound |
| --- | --- |
| 6.5 µM | CC(=O)N[C@@H](Cc1ccc(OP(=O)(O)O)cc1)C(=O)N[C@@H](CCC(N)=O)c1cccc(NC(N)=O)c1 |
| 48.7 µM | CC(=O)N[C@@H](Cc1ccc(OP(=O)(O)O)cc1)C(=O)NCc1cccc(NC(N)=O)c1 |
| 6.19 µM | CC(=O)N[C@@H](Cc1ccc(OP(=O)(O)O)cc1)C(=O)N[C@H](c1cccc(NC(N)=O)c1)C(C)C |
| 5.44 µM | CC(=O)N[C@@H](Cc1ccc(OP(=O)(O)O)cc1)C(=O)N[C@@H](CCC(N)=O)C(=O)N[C@@H](CC(N)=O)C(N)=O (Ac-[pY]-Gln-Asn-NH2) |
| 67 µM | CC(=O)N[C@@H](Cc1ccc(OP(=O)(O)O)cc1)C(=O)NCC(=O)N[C@@H](CC(N)=O)C(N)=O (Ac-[pY]-Gly-Asn-NH2) |

| Compound | IC50 |
| --- | --- |
| CC(=O)N[C@@H](Cc1ccc(OP(=O)(O)O)cc1)C(=O)N[C@H](C(=O)N[C@@H](CC(N)=O)C(N)=O)C(C)C (Ac-[pY]-Val-Asn-NH2) | 4.32 µM |
